This note sets out measurements from patent publication US8168639B2, “Heterotricyclic compounds as serotonergic and/or dopaminergic agents and uses thereof” (ATIR Holding S.A., priority 2006, dated 2012).

The structures appear in SMILES notation.

The target of series [1] is T1, D4.4 type dopamine receptor (human recombinant, CHO cells) (Homo sapiens, UniProt P21917).
T1 construct: expressed in transfected cells; host or cells: CHO cells
T1 sequence (P21917 1-419): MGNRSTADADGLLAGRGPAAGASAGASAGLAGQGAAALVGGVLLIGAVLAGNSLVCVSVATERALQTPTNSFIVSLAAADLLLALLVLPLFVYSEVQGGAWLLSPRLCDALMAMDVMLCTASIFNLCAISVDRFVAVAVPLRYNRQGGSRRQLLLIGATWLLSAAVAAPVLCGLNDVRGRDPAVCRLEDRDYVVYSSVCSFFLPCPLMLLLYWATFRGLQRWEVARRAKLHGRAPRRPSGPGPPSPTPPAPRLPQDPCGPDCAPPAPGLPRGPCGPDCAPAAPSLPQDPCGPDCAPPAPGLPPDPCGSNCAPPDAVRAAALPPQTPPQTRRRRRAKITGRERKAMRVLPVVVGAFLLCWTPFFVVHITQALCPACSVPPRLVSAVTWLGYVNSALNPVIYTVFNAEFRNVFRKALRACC
As to the kind of experiment: Competitive binding to D4.4 dopamine receptor, [3H]-YM-09151-2 radioligand. The settings on record: [3H]-YM-09151-2 0.3 nM; for D4.4(h) receptor Competitive Binding, % at 100 nM: 100 nM compound; for D4.4(h) receptor Competitive Binding, % at 1 μM: 1 μM compound. How it is done: Compounds were assayed for competitive binding to the D4.4 type dopamine receptors, which is expressed as human recombinant proteins in CHO cells, as described, for example, in Jarvis et al. (1973); Van Tol et al. (1991) and Van Tol et al. (1992).
Determination of binding to D4.4 receptor was performed using [^3H]-YM-09151-2 (70-87 Ci/mmol, 0.3 nM), as a radioligand, in with the presence of various concentrations of the tested compound. Reactions were carried out in 50 mM TRIS-HCl (pH 7.4) containing 5 mM MgCl2, 5 mM EDTA, 5 mM KCl and 1.5 mM CaCl2, for 60 minutes at 22° C. The reaction was terminated by rapid vacuum filtration onto glass fiber filters. Radioactivity trapped onto the filters was determined (counted) and compared to control values in order to accurately evaluate any interaction of the tested compound(s) with the cloned dopamine D4.4 binding site.

The target in series [2] is T2, 5-HT1A type serotonin receptor (human recombinant, HEK-293 cells) (Homo sapiens, UniProt P08908).
T2 construct: expressed in transfected cells; host or cells: HEK-293 cells
T2 sequence (P08908 1-422): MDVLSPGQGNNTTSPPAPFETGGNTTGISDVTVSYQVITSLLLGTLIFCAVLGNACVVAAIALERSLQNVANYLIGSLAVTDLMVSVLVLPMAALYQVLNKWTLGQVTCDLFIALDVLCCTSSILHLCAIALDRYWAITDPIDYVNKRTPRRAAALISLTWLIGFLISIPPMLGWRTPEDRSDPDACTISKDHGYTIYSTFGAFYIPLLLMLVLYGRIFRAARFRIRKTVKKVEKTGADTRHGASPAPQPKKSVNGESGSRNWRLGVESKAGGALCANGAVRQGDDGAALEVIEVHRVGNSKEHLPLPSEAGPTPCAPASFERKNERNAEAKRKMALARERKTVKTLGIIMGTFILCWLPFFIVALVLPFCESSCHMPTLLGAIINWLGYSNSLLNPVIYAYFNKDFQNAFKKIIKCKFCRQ
The series is described as follows: Competitive binding to 5-HT1A receptor, [3H]-8-OH-DPAT radioligand. The settings on record: [3H]-8-OH-DPAT 0.5 nM; for 5HT1A receptor Binding % at 1 nM: 1 nM compound; for 5HT1A receptor Binding % at 10 nM: 10 nM compound; for 5HT1A receptor Binding % at 100 nM: 100 nM compound; for 5HT1A receptor Binding % at 1 μM: 1 μM compound; for 5HT1A receptor Binding % at 5 μM: 5 μM compound. Here is the method:
Compounds were assayed for competitive binding to the 5-HT1A type serotonin receptor. The receptor is expressed as human recombinant proteins in HEK-293 cells, as described, for example, in Hoyer et al. (1985) and Schoeffter and Hoyer (1989).
Determination of binding to 5-HT1A receptor was performed using [^3H]-8-OH-DPAT, a 5-HT1A receptor ligand (Hoyer et al., 1985), as a radioligand (221 Ci/mmol, 0.5 nM) in the presence of various concentrations of the tested compound. Reactions were carried out in 50 mM Tris-HCl (pH 7.4) containing 10 mM MgSO4, 0.5 mM EDTA, and 0.1% ascorbic acid for 60 minutes at 25° C. The reaction was terminated by rapid vacuum filtration onto glass fiber filters. Radioactivity trapped onto the filters was determined (counted) and compared to control values in order to accurately evaluate any interaction of the test compound(s) with the cloned 5-HT1A receptor binding site.

The target of series [3] is T3, Human recombinant serotonin 5-HT1A receptors expressed in CHO cells (Homo sapiens, UniProt P08908).
T3 construct: expressed in transfected cells; host or cells: CHO cells
T3 sequence (P08908 1-422): T2 sequence (P08908 1-422)
The series is described as follows: [35S]GTPγS 5-HT1A activity assay. The settings on record: 10 μM compound; [35S]GTPγS binding increase relative to serotonin. It is filed as biochemical. Here is the method:
Human recombinant serotonin 5-HT1A receptors expressed in CHO cells were used. The tested compound were incubated with cell membranes and [^35S]GTPγS for 30 minutes in modified HEPES buffer (pH=7.4). Test compound-induced increase of [^35S]GTPγS binding was quantified relative to serotonin-induced increase of [^35S]GTPγS. Compounds were tested at concentrations of 10, 1 and 0.1 μM.
Background: GTPγS resists hydrolysis and so accumulates on activated G proteins.

The subject of a further series is Sprague Dawley rats. The series is described as follows: Penile erection test in rats. It is filed as in vivo, rat. The following applies: 0.3 µmol/kg, subcutaneous; for Percent of animals showing erection response: moderate to strong erection. How it is done:
Penile erection was tested in Sprague Dawley rats. The experimental group included 50 adult male rats, with body weights in the range of 312-330 grams. The animals were housed for acclimatization in a cage, and water and food were supplied ad libitum.
Penile erection experiments were carried out in morning hours between 9 AM and 11 AM, in a dark room with a red light source. Control groups included 10 animals that received saline as a placebo, and 10 animals that received 0.3 μmol/kg body weight of apomorphine hydrochloride in 1 ml of saline, as a positive control. […]
Penile erection was tested in Sprague Dawley rats, according to the protocol described hereinabove.

The test system of series [4] is Male ferrets (Mustela putorius furo). As to the kind of experiment: Ferret emesis model. It is filed as in vivo, ferret (Mustela putorius furo). The following applies: 0.3 μmol/kg subcutaneous, observed 90 minutes. Here is the method: Male ferrets (Mustela putorius furo) were made to fast overnight before experiments. 18 animals (weighing 0.8-1.0 kg) were divided into the following three groups of six:
(1) test group—received the compound being tested, e dissolved in 1 ml saline at a dose of 0.3 μmol/kg body weight, administered subcutaneously;
(2) negative control—received saline; and
(3) positive control—received apomorphine.
Animals were placed individually in observation cages and received cat food 30 minutes before the experiment.
One ml of saline was administered subcutaneously. Apomorphine and the test compound were dissolved in 1 ml saline at a dose of 0.3 μmol/kg body weight. Induced emesis or nausea was determined by direct observation during 90 minutes following drug injection. Nausea was characterized by behavior such as licking, gagging, backing, head burying and intense abdominal grooming. Emesis was characterized by rhythmic abdominal contractions.

Regarding `O=c1[nH]c(CN2CCN(c3cccc(O)c3)CC2)nc2sc3c(c12)CCCC3` [Compound B-95], in series [1], the “D4.4(h) receptor Competitive Binding, % at 100 nM” value came out at 32.26% and the “D4.4(h) receptor Competitive Binding, % at 1 μM” value is recorded as 86.68%. For the same molecule, in series [2], the “5HT1A receptor Binding % at 1 nM” value is recorded as “active”, the “5HT1A receptor Binding % at 10 nM” value is “active”, the “5HT1A receptor Binding % at 100 nM” value is given as “active” and the “5HT1A receptor Binding % at 1 μM” value was “active”. For the same molecule, the “5HT1A receptor Binding % at 5 μM” value in series [2] is recorded as “active”. The “% activation of 5HT1A at 10 μM” value in series [3] was “active”.

As for `O=c1[nH]c(CN2CCC(c3ccccc3)CC2)nc2sc3c(c12)CCCC3` [Compound B-93], in series [1], the “D4.4(h) receptor Competitive Binding, % at 100 nM” value turned out to be 16.69% and the “D4.4(h) receptor Competitive Binding, % at 1 μM” value was determined as 81.97%. Besides, in series [2], the “5HT1A receptor Binding % at 1 nM” value is listed as “active”, the “5HT1A receptor Binding % at 10 nM” value was “active”, the “5HT1A receptor Binding % at 100 nM” value is “active” and the “5HT1A receptor Binding % at 1 μM” value is “active”. The “5HT1A receptor Binding % at 5 μM” value in series [2] was “active”. In series [3], the “% activation of 5HT1A at 10 μM” value is on record as “active”.

As for `CCOc1ccccc1N1CCN(Cc2nc3sc4c(c3c(=O)[nH]2)CCCC4)CC1` [Compound B-94], in series [1], the “D4.4(h) receptor Competitive Binding, % at 100 nM” value amounted to 19.14% and the “D4.4(h) receptor Competitive Binding, % at 1 μM” value is recorded as 89.02%. Further, in series [2], the “5HT1A receptor Binding % at 1 nM” value is reported as 0.9%, the “5HT1A receptor Binding % at 10 nM” value came to 20.23%, the “5HT1A receptor Binding % at 100 nM” value came to 44.56% and the “5HT1A receptor Binding % at 1 μM” value turned out to be 62.77%. Further, in series [2], the “5HT1A receptor Binding % at 5 μM” value is recorded as 97.67%. Also, the “% activation of 5HT1A at 10 μM” value in series [3] was 50%.

As to `COc1ccccc1N1CCN(Cc2cc3c(cn2)[nH]c2ccccc23)CC1` [Compound B-99], in series [1], the “D4.4(h) receptor Competitive Binding, % at 100 nM” value is listed as 97.43% and the “D4.4(h) receptor Competitive Binding, % at 1 μM” value is listed as 102.4%. In series [2], the “5HT1A receptor Binding % at 1 nM” value is reported as “active”, the “5HT1A receptor Binding % at 10 nM” value is listed as “active”, the “5HT1A receptor Binding % at 100 nM” value is given as “active” and the “5HT1A receptor Binding % at 1 μM” value is listed as “active”. In addition, the “5HT1A receptor Binding % at 5 μM” value in series [2] is “active”. Also, the “% activation of 5HT1A at 10 μM” value in series [3] is given as “active”. In the series on Sprague Dawley rats, the “Number of animals showing moderate to strong erection” value is 26 of the 30 animals, the “Time during which erection was shown” value fell in the range of 45 to 70 min and the “Percent of animals showing erection response” value amounted to 87%. The “Number of ferrets showing signs of nausea and/or emesis” value in series [4] is recorded as “none”.

For the molecule `CN1CCc2cccc3c2[C@H]1Cc1ccc(O)c(O)c1-3` [apomorphine, reference compound], in the series with Sprague Dawley rats, the “Time during which erection was shown” value lay in the range of 15 to 25 min and the “Percent of animals showing erection response” value came to 70%. Besides, the “Number of ferrets showing signs of nausea and/or emesis” value in series [4] was 4 of the 6 ferrets.

On to `Oc1cccc(N2CCN(Cc3cc4c(cn3)[nH]c3ccccc34)CC2)c1` [Compound B-96], for which, in series [1], the “D4.4(h) receptor Competitive Binding, % at 100 nM” value is 87.6% and the “D4.4(h) receptor Competitive Binding, % at 1 μM” value was 102.45%. In series [2], the “5HT1A receptor Binding % at 1 nM” value was “active”, the “5HT1A receptor Binding % at 10 nM” value is on record as “active”, the “5HT1A receptor Binding % at 100 nM” value is “active” and the “5HT1A receptor Binding % at 1 μM” value is reported as “active”. Besides, in series [2], the “5HT1A receptor Binding % at 5 μM” value is given as “active”. For the same molecule, the “% activation of 5HT1A at 10 μM” value in series [3] was “active”.

In the case of `CCOc1ccccc1N1CCN(Cc2cc3c(cn2)[nH]c2ccccc23)CC1` [Compound B-97], in series [1], the “D4.4(h) receptor Competitive Binding, % at 100 nM” value was 74.27% and the “D4.4(h) receptor Competitive Binding, % at 1 μM” value worked out at 100.99%. In addition, in series [2], the “5HT1A receptor Binding % at 1 nM” value was 1.78%, the “5HT1A receptor Binding % at 10 nM” value stood at 37.48%, the “5HT1A receptor Binding % at 100 nM” value turned out to be 75.08% and the “5HT1A receptor Binding % at 1 μM” value amounted to 99.45%. Moreover, the “5HT1A receptor Binding % at 5 μM” value in series [2] was found to be 100.34%. Moreover, the “% activation of 5HT1A at 10 μM” value in series [3] was 48%.
